The text below walks through data of patent US12473262B2, “Aryl hydrocarbon receptor activators” (Oregon State University, priority 2019, dated 2025).

The nature of data set [1]: Liver microsomal stability, human. The settings on record: for Rem @ HLM × 30 min: human liver microsomes, 1 μM compound, 0.5 mg/ml protein; for half-life at 1 μM / microsomal CLint at 1 μM: human, liver microsomes, pH 7.4.
In data set [2] the target is aryl hydrocarbon receptor (AhR) (Mus musculus (Mouse), UniProt P30561). Put plainly: AhR ligand screening: AhRE-luciferase reporter in transfected Hepa1 cells. It counts as cell-based. The settings on record: for Fold @ 1 nM: fold change of luciferase expression at 1 nM test compound relative to vehicle (0.1% DMSO); for Fold @ 100 nM: fold change of luciferase expression at 100 nM test compound relative to vehicle (0.1% DMSO); for Fold @ 10 uM: fold change of luciferase expression at 10 uM test compound relative to vehicle (0.1% DMSO); for Fold relative to benchmark @ 100 nM: luciferase expression at 100 nM test compound relative to 100 nM benchmark compound 11-cl-BBQ. In outline: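 Mouse Hepa1 cells transfected with an AhRE-luciferase reporter were plated at 1×10^4 cells/well, grown overnight, then exposed to compounds. Cell lysates were assayed for luciferase by luminometry, with results given as fold induction over 0.1% DMSO vehicle.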
Sequence of aryl hydrocarbon receptor (AhR) (P30561 10-805): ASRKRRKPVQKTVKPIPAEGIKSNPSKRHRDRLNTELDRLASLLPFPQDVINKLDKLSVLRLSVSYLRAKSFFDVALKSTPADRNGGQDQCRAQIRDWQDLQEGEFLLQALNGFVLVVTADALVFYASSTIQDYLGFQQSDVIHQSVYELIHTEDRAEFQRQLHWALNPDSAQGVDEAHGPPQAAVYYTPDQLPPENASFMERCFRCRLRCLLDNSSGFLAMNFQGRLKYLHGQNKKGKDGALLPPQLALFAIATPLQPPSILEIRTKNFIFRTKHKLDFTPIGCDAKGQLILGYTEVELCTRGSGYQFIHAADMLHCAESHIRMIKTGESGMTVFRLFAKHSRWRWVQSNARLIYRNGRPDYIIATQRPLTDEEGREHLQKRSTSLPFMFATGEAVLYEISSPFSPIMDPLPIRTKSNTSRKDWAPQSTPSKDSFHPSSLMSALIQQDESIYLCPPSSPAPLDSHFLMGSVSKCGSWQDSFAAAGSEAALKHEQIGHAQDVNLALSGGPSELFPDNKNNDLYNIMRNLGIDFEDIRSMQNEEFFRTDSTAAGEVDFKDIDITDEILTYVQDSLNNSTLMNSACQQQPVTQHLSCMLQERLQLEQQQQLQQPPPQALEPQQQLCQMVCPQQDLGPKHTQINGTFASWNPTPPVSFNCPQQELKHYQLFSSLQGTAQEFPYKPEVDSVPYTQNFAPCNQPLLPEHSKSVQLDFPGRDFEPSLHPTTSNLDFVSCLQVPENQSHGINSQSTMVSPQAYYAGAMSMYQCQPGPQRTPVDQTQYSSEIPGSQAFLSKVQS
Sequence of aryl hydrocarbon receptor (AhR) (P53762 whole entry partner): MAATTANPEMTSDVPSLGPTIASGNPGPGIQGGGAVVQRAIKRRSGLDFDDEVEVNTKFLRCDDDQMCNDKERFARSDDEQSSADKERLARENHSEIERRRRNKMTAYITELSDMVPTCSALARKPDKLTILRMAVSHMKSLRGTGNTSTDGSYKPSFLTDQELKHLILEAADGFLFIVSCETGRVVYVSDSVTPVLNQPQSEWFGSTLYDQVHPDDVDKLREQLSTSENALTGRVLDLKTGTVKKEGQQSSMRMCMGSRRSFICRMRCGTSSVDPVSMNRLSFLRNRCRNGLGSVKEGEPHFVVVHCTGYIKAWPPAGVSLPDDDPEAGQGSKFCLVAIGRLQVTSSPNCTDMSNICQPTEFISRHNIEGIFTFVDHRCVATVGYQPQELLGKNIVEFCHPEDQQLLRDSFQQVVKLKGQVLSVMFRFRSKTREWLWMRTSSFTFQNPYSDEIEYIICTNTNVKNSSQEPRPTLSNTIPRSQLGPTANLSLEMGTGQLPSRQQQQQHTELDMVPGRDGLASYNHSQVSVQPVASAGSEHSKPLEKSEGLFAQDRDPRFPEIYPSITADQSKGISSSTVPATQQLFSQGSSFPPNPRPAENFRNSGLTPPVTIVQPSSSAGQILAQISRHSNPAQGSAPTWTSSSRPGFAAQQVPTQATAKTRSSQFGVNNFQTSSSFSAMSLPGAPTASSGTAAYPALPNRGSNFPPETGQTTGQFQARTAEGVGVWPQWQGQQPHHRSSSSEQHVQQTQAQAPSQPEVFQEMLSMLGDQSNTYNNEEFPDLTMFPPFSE
(In general: In a reporter assay the amount or activity of a reporter protein is the signal.)

A short description of data set [3]: Liver microsomal stability, mouse. The settings on record: for Rem @ MLM × 30 min: mouse liver microsomes, 1 μM compound, 0.5 mg/ml protein; for half-life at 1 μM / microsomal CLint at 1 μM: mouse, liver microsomes, pH 7.4. In general terms: Liver microsomes are a subcellular fraction often used to study metabolism.
Experimental: The assessment of metabolic stability of testing compounds was performed using human, mouse, rat, dog and monkey liver microsomes (20 mg protein/ml). Each reaction mixture contained 42.5 μL of 0.1 M potassium phosphate buffer pH 7.4, containing respective LM protein (final concentration 0.5 mg/ml). 2.5 μL of the compound stock solution was added in it (1 μM final concentration). The reaction was initiated by the addition of 5 μL NADPH solution (final Concentration 1 mM). At different time points (0, 5, 15, and 30 minutes), samples were quenched with 200 μL of cold acetonitrile containing ISTD Propranolol. Samples were centrifuged at 3500 rpm for 20 mM at 4° C. Supernatant was subjected to LC-MS/MS analysis for quantification. Verapamil was used as a positive control.
Data set [4] can be described thus: Liver microsomal stability, rat. The settings on record: for Rem @ RLM × 30 min: rat liver microsomes, 1 μM compound, 0.5 mg/ml protein; for half-life at 1 μM / microsomal CLint at 1 μM: rat, liver microsomes, pH 7.4.

In general, half-life refers to the time in which the quantity being followed falls by half. The term microsomal CLint denotes a measure of how fast metabolising enzymes remove a compound, apart from limits set by blood flow. A higher microsomal CLint goes with rapid turnover. Consider `O=C(c1ccc(SC(F)(F)F)cc1)c1c[nH]c2ccc(Cl)cc12` [Compound 884], for which, in data set [1], the “Rem @ HLM × 30 min” value stood at 81.2%, the half-life at 1 μM was 98.8 min and the microsomal CLint at 1 μM was 14 µL/min/mg. Further, in data set [2], the “Fold @ 1 nM” value came to 1 fold, the “Fold @ 100 nM” value is given as 2 fold, the “Fold @ 10 uM” value came to 16 fold and the “Fold relative to benchmark @ 100 nM” value came to 0.04 fold. Also, in data set [3], the “Rem @ MLM × 30 min” value was found to be 22.2%, the half-life at 1 μM amounted to 13.9 min and the intrinsic clearance (microsomal CLint) at 1 μM is 100 µL/min/mg. In data set [4], the “Rem @ RLM × 30 min” value was found to be 23.1%, the half-life at 1 μM was determined as 14.3 min and the microsomal CLint at 1 μM was 96.7 µL/min/mg.
With `O=C(C1CC1)n1c(-c2cccc3ccccc23)nc2ccc(Cl)cc21` [Compound 774], in data set [1], the “Rem @ HLM × 30 min” value came to 52.7%, the half-life at 1 μM turned out to be 36.3 min and the microsomal CLint at 1 μM came out at 38.2 µL/min/mg. Also, in data set [2], the “Fold @ 1 nM” value was found to be 1 fold, the “Fold @ 100 nM” value is 21 fold, the “Fold @ 10 uM” value was 28 fold and the “Fold relative to benchmark @ 100 nM” value was found to be 0.84 fold. For the same compound, in data set [3], the “Rem @ MLM × 30 min” value was found to be 28.2%, the half-life at 1 μM is 19.3 min and the microsomal CLint at 1 μM was determined as 71.9 µL/min/mg. Also, in data set [4], the “Rem @ RLM × 30 min” value worked out at 45.5%, the half-life at 1 μM is 31.9 min and the microsomal CLint at 1 μM came out at 43.5 µL/min/mg.
On to `O=C(c1cccc(Cl)c1Cl)c1c[nH]c2ccc(Cl)cc12` [Compound 889], for which, in data set [1], the “Rem @ HLM × 30 min” value was found to be 30.2%, the half-life at 1 μM came out at 22.6 min and the microsomal CLint at 1 μM worked out at 61.2 µL/min/mg. For the same compound, in data set [2], the “Fold @ 1 nM” value is 1 fold, the “Fold @ 100 nM” value came to 1 fold, the “Fold @ 10 uM” value turned out to be 5 fold and the “Fold relative to benchmark @ 100 nM” value was 0.02 fold. Besides, in data set [3], the “Rem @ MLM × 30 min” value is 43.5%, the half-life at 1 μM was determined as 33.9 min and the microsomal CLint at 1 μM came to 40.9 µL/min/mg. Moreover, in data set [4], the “Rem @ RLM × 30 min” value turned out to be 33.5%, the half-life at 1 μM was determined as 25.6 min and the microsomal CLint at 1 μM amounted to 54.2 µL/min/mg.
Consider `COc1ccc(C(=O)c2c[nH]c3ccc(Cl)cc23)cc1` [Compound 894], for which, in data set [1], the “Rem @ HLM × 30 min” value is reported as 57.9%, the half-life at 1 μM amounted to 45.3 min and the microsomal CLint at 1 μM was found to be 30.6 µL/min/mg. Further, in data set [2], the “Fold @ 1 nM” value was found to be 1 fold, the “Fold @ 100 nM” value was 1 fold, the “Fold @ 10 uM” value was determined as 7 fold and the “Fold relative to benchmark @ 100 nM” value turned out to be 0.02 fold. Further, in data set [3], the “Rem @ MLM × 30 min” value is recorded as 54.5%, the half-life at 1 μM came to 37.6 min and the microsomal CLint at 1 μM came out at 36.9 µL/min/mg. In addition, in data set [4], the “Rem @ RLM × 30 min” value is recorded as 58.1%, the half-life at 1 μM was determined as 43 min and the microsomal CLint at 1 μM worked out at 32.3 µL/min/mg.
With `O=C(c1ccccc1)c1c[nH]c2ccc(Cl)cc12` [Compound 892], in data set [1], the “Rem @ HLM × 30 min” value came out at 24.7%, the half-life at 1 μM is 15.3 min and the microsomal CLint at 1 μM came to 90.7 µL/min/mg. Moreover, in data set [2], the “Fold @ 1 nM” value is listed as 1 fold, the “Fold @ 100 nM” value is given as 1 fold, the “Fold @ 10 uM” value is reported as 15 fold and the “Fold relative to benchmark @ 100 nM” value is on record as 0.02 fold. Besides, in data set [3], the “Rem @ MLM × 30 min” value was 36.7%, the half-life at 1 μM was determined as 21 min and the intrinsic clearance (microsomal CLint) at 1 μM was 66.1 µL/min/mg. Moreover, in data set [4], the “Rem @ RLM × 30 min” value was 64.9%, the half-life at 1 μM was found to be 57 min and the microsomal CLint at 1 μM worked out at 24.3 µL/min/mg.
`O=S(=O)(c1ccc(C(F)(F)F)cc1)n1c(-c2cccc3ccccc23)nc2cc(Cl)ccc21` [Compound 781]: in data set [1], the “Rem @ HLM × 30 min” value is on record as 44.4%, the half-life at 1 μM stood at 24.6 min and the microsomal CLint at 1 μM is 56.3 µL/min/mg. For the same compound, in data set [2], the “Fold @ 1 nM” value was found to be 1 fold, the “Fold @ 100 nM” value stood at 20 fold, the “Fold @ 10 uM” value is reported as 24 fold and the “Fold relative to benchmark @ 100 nM” value stood at 0.8 fold. For the same compound, in data set [3], the “Rem @ MLM × 30 min” value is 18.0%, the half-life at 1 μM worked out at 12.1 min and the microsomal CLint at 1 μM amounted to 115 µL/min/mg. Further, in data set [4], the “Rem @ RLM × 30 min” value is on record as 43.1%, the half-life at 1 μM was 24.4 min and the microsomal CLint at 1 μM came to 56.8 µL/min/mg.
Take `O=C(c1ccc(Cl)cc1Cl)c1c[nH]c2ccc(Cl)cc12` [Compound 890]: in data set [1], the “Rem @ HLM × 30 min” value is recorded as 44.7%, the half-life at 1 μM came out at 35.2 min and the microsomal CLint at 1 μM stood at 39.4 µL/min/mg. For the same compound, in data set [2], the “Fold @ 1 nM” value came to 1 fold, the “Fold @ 100 nM” value is 2 fold, the “Fold @ 10 uM” value was 17 fold and the “Fold relative to benchmark @ 100 nM” value is given as 0.04 fold. Also, in data set [3], the “Rem @ MLM × 30 min” value is 39.3%, the half-life at 1 μM came out at 28.2 min and the microsomal CLint at 1 μM was 49.1 µL/min/mg. In data set [4], the “Rem @ RLM × 30 min” value turned out to be 37.4%, the half-life at 1 μM was determined as 29 min and the microsomal CLint at 1 μM worked out at 47.8 µL/min/mg.
As for `CCc1ccc(S(=O)(=O)n2c(-c3cccc4ccccc34)nc3ccc(Cl)cc32)cc1` [Compound 776], in data set [1], the “Rem @ HLM × 30 min” value stood at 28.3%, the half-life at 1 μM worked out at 16.4 min and the microsomal CLint at 1 μM worked out at 84.6 µL/min/mg. In data set [2], the “Fold @ 1 nM” value came to 1 fold, the “Fold @ 100 nM” value was found to be 15 fold, the “Fold @ 10 uM” value is recorded as 20 fold and the “Fold relative to benchmark @ 100 nM” value is given as 0.6 fold. Further, in data set [3], the “Rem @ MLM × 30 min” value was 23.9%, the half-life at 1 μM is 14.6 min and the microsomal CLint at 1 μM is 94.7 µL/min/mg. In addition, in data set [4], the “Rem @ RLM × 30 min” value is given as 27.5%, the half-life at 1 μM was determined as 16.3 min and the microsomal CLint at 1 μM is 84.9 µL/min/mg.
For the compound `O=C(c1ccc(OC(F)(F)F)cc1)c1c[nH]c2ccc(Cl)cc12` [Compound 881], in data set [2], the “Fold @ 1 nM” value is on record as 1 fold, the “Fold @ 100 nM” value stood at 2 fold, the “Fold @ 10 uM” value worked out at 18 fold and the “Fold relative to benchmark @ 100 nM” value was 0.04 fold.
Turning to `O=C1c2ccccc2-c2nc3cc(Cl)ccc3n21` [Compound 489, 5-chloro-1,8-diazatetracyclo-[7.7.0.0^2,70.^10,15]hexadeca-2,4,6,8,10,12,14-heptaen-16-one], in data set [2], the “Fold @ 1 nM” value was determined as 1 fold, the “Fold @ 100 nM” value is given as 1 fold, the “Fold @ 10 uM” value is 5 fold and the “Fold relative to benchmark @ 100 nM” value amounted to 0.03 fold.
`Cn1ncc2c(-c3nc4cc(Cl)ccc4n3C(=O)c3ccc(F)c(F)c3)cccc21` [Compound 860]: in data set [2], the “Fold @ 1 nM” value stood at 1 fold, the “Fold @ 100 nM” value is on record as 3 fold, the “Fold @ 10 uM” value was 88 fold and the “Fold relative to benchmark @ 100 nM” value is on record as 0.1 fold.
The corresponding values for `Cc1ccc(C(=O)n2c(-c3cccc4ccccc34)nc3ccc(Cl)cc32)cc1` [Compound 698] are 1 fold, 26 fold, 30 fold and 1 fold.
With `COc1ccc(C(=O)n2c(-c3cccc4ccccc34)nc3ccc(Cl)cc32)cc1OC` [Compound 683], in data set [2], the “Fold @ 1 nM” value turned out to be 1 fold, the “Fold @ 100 nM” value stood at 26 fold, the “Fold @ 10 uM” value is reported as 34 fold and the “Fold relative to benchmark @ 100 nM” value is reported as 1 fold.
As for `O=C(c1ccc(F)c(F)c1)n1c(-c2ccc3ccccc3c2)nc2cc(Cl)ccc21` [Compound 684], in data set [2], the “Fold @ 1 nM” value is reported as 1 fold, the “Fold @ 100 nM” value is 2 fold, the “Fold @ 10 uM” value came to 56 fold and the “Fold relative to benchmark @ 100 nM” value was found to be 0.08 fold.
The corresponding values for `O=C(c1ccc(F)c(F)c1)n1c(-c2cccc(-c3ccccc3)c2)nc2cc(Cl)ccc21` [Compound 771] are 1 fold, 1 fold, 2 fold and 0.04 fold.
As for `COC(=O)c1ccc2c(c1)nc(-c1cccc3ccccc13)n2Cc1ccc(F)c(F)c1` [Compound 1338], in data set [2], the “Fold @ 1 nM” value is on record as 1 fold, the “Fold @ 100 nM” value is given as 1 fold, the “Fold @ 10 uM” value was determined as 2 fold and the “Fold relative to benchmark @ 100 nM” value came to 0.03 fold.
In the case of `O=c1c2cccc3cccc(c32)c2cc3ccc(Cl)cc3n12` [Compound 405, 7-chloro-10-azapentacyclo[10.7.1.0^2,10.0^4,9.0^16,20]icosa 1(19),2,4(9),5,7,12,14,16(20),17-nonaen-11-one], in data set [2], the “Fold @ 1 nM” value is 8 fold, the “Fold @ 100 nM” value stood at 31 fold and the “Fold relative to benchmark @ 100 nM” value is given as 0.78 fold.
With `CC(C)(C)c1cccc(-c2nc3cc(Cl)ccc3n2C(=O)c2ccc(F)c(F)c2)c1` [Compound 787], in data set [2], the “Fold @ 1 nM” value is listed as 1 fold, the “Fold @ 100 nM” value is recorded as 1 fold, the “Fold @ 10 uM” value was 4 fold and the “Fold relative to benchmark @ 100 nM” value came to 0.04 fold.
Consider `Cc1cccc(-c2nc3cc(Cl)ccc3n2C(=O)c2ccc(F)c(F)c2)c1Cl` [Compound 791], for which, in data set [2], the “Fold @ 1 nM” value stood at 1 fold, the “Fold @ 100 nM” value is given as 1 fold, the “Fold @ 10 uM” value came to 26 fold and the “Fold relative to benchmark @ 100 nM” value was 0.04 fold.
